Six compounds from patent EP0018104A2, “Tetrahydroisoquinolines, their production and the compounds and pharmaceutical compositions containing them for use in the prevention or treatment of hypertension” (Takeda Chemical Industries, Ltd., priority 1979, dated 1980) can be followed below.

This experiment has as its target T1, angiotensin I converting enzyme (ACE) (Oryctolagus cuniculus, UniProt P12822).
T1 construct: prepared from the lungs of albino rabbit according to the method described by Wallace et al; from tissue; host or cells: lungs of albino rabbit
T1 sequence (P12822 34-1310): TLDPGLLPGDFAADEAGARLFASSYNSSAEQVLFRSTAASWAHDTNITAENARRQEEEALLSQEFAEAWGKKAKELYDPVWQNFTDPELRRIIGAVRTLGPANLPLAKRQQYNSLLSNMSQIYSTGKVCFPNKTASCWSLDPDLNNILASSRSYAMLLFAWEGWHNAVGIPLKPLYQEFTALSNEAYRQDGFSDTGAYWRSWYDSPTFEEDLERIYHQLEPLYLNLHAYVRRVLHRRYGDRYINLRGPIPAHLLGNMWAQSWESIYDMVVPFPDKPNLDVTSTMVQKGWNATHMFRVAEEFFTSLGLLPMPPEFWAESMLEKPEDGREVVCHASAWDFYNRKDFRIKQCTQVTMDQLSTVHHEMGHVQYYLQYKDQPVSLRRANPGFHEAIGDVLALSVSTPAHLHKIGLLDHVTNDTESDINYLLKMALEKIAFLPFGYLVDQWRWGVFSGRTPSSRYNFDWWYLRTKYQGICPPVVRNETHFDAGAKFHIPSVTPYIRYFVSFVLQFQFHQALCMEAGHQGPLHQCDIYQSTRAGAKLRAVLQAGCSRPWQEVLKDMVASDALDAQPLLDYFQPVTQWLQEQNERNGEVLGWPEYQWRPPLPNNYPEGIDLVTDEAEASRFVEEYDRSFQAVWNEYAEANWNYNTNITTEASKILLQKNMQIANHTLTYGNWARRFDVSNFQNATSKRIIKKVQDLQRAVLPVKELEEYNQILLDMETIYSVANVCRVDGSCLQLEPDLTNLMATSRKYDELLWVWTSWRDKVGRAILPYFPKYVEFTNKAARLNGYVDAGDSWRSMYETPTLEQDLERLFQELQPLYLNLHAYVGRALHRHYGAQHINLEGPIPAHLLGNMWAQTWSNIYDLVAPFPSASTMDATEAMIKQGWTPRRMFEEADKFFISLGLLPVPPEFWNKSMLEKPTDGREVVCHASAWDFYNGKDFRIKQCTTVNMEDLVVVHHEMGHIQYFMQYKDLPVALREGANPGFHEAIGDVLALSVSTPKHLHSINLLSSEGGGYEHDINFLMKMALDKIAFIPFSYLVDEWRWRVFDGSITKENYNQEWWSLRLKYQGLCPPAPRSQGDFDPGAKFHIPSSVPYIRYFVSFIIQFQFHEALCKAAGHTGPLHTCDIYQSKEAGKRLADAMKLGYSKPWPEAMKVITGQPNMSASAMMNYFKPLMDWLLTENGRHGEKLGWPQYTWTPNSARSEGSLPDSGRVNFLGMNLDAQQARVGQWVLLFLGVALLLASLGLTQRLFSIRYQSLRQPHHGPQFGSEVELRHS
The experiment can be described thus: Inhibition of angiotensin I converting enzyme (HHL substrate, hippuric acid colorimetry, modified Cushman method). Format: biochemical, albino rabbit. The settings on record: ACE from rabbit lung, 37°C, one hour, read-out: Inhibitory Activity on ACE (%); for inhibition at 1 µM: Concentration 1 µM; for inhibition at 10 µM: Concentration 10 µM. Here is the method: Inhibitions of Angiotensin I Converting Enzyme by the Compounds of this Invention.
The experiment was conducted in accordance with a modification of the method described by Cushman et al. [Biochemical Pharmacology, Vol. 20, p1637(1971)] using an angiotensin I converting enzyme (ACE) prepared from the lungs of albino rabbit according to the method described by Wallace et al. [American Journal of Physiology, Vol 234, page R141(1978)]. That is, using hippuryl-L-histidyl-L-leucin (HHL) as the substrate, the ACE inhibitory activity was determined in terms of percentage inhibitation on the amount of hippurie acid produced by ACE when the present compound was added. A solution of the compound of the present invention dissolved in an 0.02 to 2% dimethyl sulfoxide-500 mMpotassium phosphate buffer solution (pH 8.3, containing 300 mM sodium chloride) was added to 100 µℓ of ACE (protein concentration, 20 mg/mℓ) and 100 µℓ of 1.25 mM HHL. In this experiment a potassium phosphate buffer solution containing dimethyl sulfoxide at a concentration equal to that of the test solution was used as a control. After incubating the solution at 37°C for one hour, 150 µℓ of 1N hydrochloric acid were added to the solution to terminate the reaction. After 1 mℓ of ethyl acetate was added, the solution was centrifuged at 3000 r.p.m. for 10 minutes. An 0.5 mℓ aliquot was separated from the ethyl acetate layer and dried at a temperature below 50°C under a nitrogen. gas stream. The residue was mixed with mℓ of 1M aqueous sodium chloride and the mixture was subjected to colorimetry at a wavelength of 228 nm.

For `CC(=O)SCC(C)C(=O)N1Cc2cc(CC(C)C)ccc2CC1C(=O)O` (stereo not drawn) [Example 34, 2-(3-acetylthio-2-methylpropionyl)-7-isobutyl-1,2,3,4-tetrahydroisoquinoline-3-carboxylic acid], the inhibition at 1 µM came out at 63% and the inhibition at 10 µM worked out at 94%.
The like results for `CC(=O)SCC(C)C(=O)N1Cc2cc3c(cc2C[C@H]1C(=O)O)OCO3` (stereo partly drawn) [Example 38, (3S)-2-(3-acetylthio-2-methylpropionyl)-6,7-methylenedioxy-1,2,3,4-tetrahydroisoquinoline-3-carboxylic acid] were, in that order, 83% and 100%.
Take `CC(=O)SCC(C)C(=O)N1Cc2cc(Br)ccc2CC1C(=O)O` (stereo not drawn) [Example 42, 2-(3-acetylthio-2-methylpropiony)-7-tromo-1,2,3,4-tetrahydroisoquinoline-3-carboxylic acid]: the inhibition at 1 µM turned out to be 69% and the inhibition at 10 µM came to 93%.
The like results for `CC(=O)SCC(C)C(=O)N1Cc2cc(N3CCCCC3)ccc2CC1C(=O)O` (stereo not drawn) [Example 44, 2-(3-acetylthio-2-methylpropionyl)-7-piperidino-1,2,3,4-tetrahydroisoquinoline-3-carbozylic acid] were, in that order, 66% and 97%.
The like results for `CC(CS)C(=O)N1Cc2cc3c(cc2C[C@H]1C(=O)O)OCO3` (stereo partly drawn) [Example 52, (3S)-2-(3-mercapto-2-methylpropionul)-1,7-mezhylene-dioxy-1,2,3,4-tetrahydroisoquinoline-3-earboxylie acid] were, in that order, 60% and 82%.
The like results for `CC(C)(C)c1ccc2c(c1)CN(C(=O)C(CS)CS)C(C(=O)O)C2` (stereo not drawn) [Example 71, 7-tert-butyl-2-(3-mercapto-2-mereaptomethylprionyl)-1,2,3,4-tetrahydroisoquinoline-3-carboxylic acid] were, in that order, 71% and 77%.
